Data as given in patent US7932279B2 (ArQule, Inc., priority 2007, dated 2011).

Target: T1, HSP90α (Homo sapiens, UniProt P07900)
T1 construct: purchased Stressgen Lot B506492
Assay: HSP90 binding assay (fluorescent ELISA, competition with biotinylated Geldanamycin)
Conditions: reported as range of IC50's
Procedure: The biochemical assay is described as follows.
Purified HSP90α […] was purchased from Stressgen Lot B506492. Single use aliquots of the 1.15 mg/ml stock were prepared and stored at −80° C. to avoid multiple freeze-thaw cycles.
A Nunc Maxisorb plate was coated overnight at 4° C. with 200 ng of HSP90/well dissolved in DPBS. The following day the plates were washed with TBST and blocked for 2 h at room temperature with blocking buffer (20 mM HEPES pH 7.3, 1 mM EDTA, 5 mM MgCl2, 100 mM KCl, 5% BSA). Blocking buffer was removed by washing plates with TBST, and test compounds dissolved in assay buffer (20 mM HEPES pH 7.3, 1 mM EDTA, 5 mM MgCl2, 100 mM KCl, 1% BSA) were added to plate. […] The reaction is incubated for 60 minutes at room temperature. […] Competitive inhibitory compounds will block this interaction from occurring.
The reactions were stopped by washing the plate with TBST. The binding of the bio-GM is detected by the addition of an Alkaline Phosphatase tagged Streptavidin molecule. A TBST wash eliminates any unbound detection agent, and the Alkaline Phosphate substrate Attophos is introduced. This substrate generates a fluorescent signal at […] when excited at […]. These plates can be monitored on either a Victor 5 or Perkin Elmer Envision multilabel reader.

Molecule | IC50 [µM]
COCCn1nnnc1-c1cc(-c2cccc(OC(F)(F)F)c2)c(O)cc1O [Compound 11] | > 50
COCCCn1nnnc1-c1cc(-c2cccc(C(=O)N3CCN(CC4CCN(C)CC4)CC3)c2)c(O)cc1O [Compound 69] | > 50
COCCCn1nnnc1-c1cc(-c2cccc(C(=O)NCCCN(C)C)c2)c(O)cc1O [Compound 65] | > 50
COCCCn1nnnc1-c1cc(-c2cccc(C(=O)OC)c2)c(O)cc1O [Compound 21] | 10 to 50
COCCCn1nnnc1-c1cc(-c2cccc(C(=O)N(C)CCN(C)C)c2)c(O)cc1O [Compound 63] | > 50
CCCCn1nnnc1-c1cc(-c2cccc(C(=O)NCCC3CCCN3C)c2)c(O)cc1O (stereo not shown) [Compound 59] | > 50
CCCCn1nnnc1-c1cc(-c2cccc(C(=O)NC(C)CN(C)C)c2)c(O)cc1O (stereo not shown) [Compound 60, 5′-(1-Butyl-1H-tetrazol-5-yl)-2′,4′-dihydroxy-biphenyl-3-carboxylic acid (2-dimethylamino-1-methyl-ethyl)-amide] | > 50
COCCCn1nnnc1-c1cc(-c2ccc(OC(F)(F)F)cc2)c(O)cc1O [Compound 73] | > 50
CCCCn1nnnc1-c1cc(-c2cccc(C(=O)NCCc3cccc(OC)c3)c2)c(O)cc1O [Compound 57] | > 50
COCCCn1nnnc1-c1cc(-c2ccc(C(F)(F)F)cc2)c(O)cc1O [Compound 18, 5-[1-(3-methoxy-propyl)-1H-tetrazol-5-yl]-4′-trifluoromethyl-biphenyl-2,4-diol] | > 50
COc1ccc(C(C)C)cc1-c1cc(-c2nnnn2C2CCN(C(=O)OC(C)(C)C)CC2)c(O)cc1O [Compound 43] | 10 to 50
CCCCn1nnnc1-c1cc(-c2cccc(C(=O)N3CCN(CCCN4CCOCC4)CC3)c2)c(O)cc1O [Compound 56, [5′-(1-Butyl-1H-tetrazol-5-yl)-2′,4′-dihydroxy-biphenyl-3-yl]-[4-(3-morpholin-4-ylpropyl)-piperazin-1-yl]-methanone] | > 50
COc1ccc(C(C)C)cc1-c1cc(-c2nnnn2C2CCNCC2)c(O)cc1O [Compound 41] | 1 to 10
CCCCn1nnnc1-c1cc(-c2cccc(C(=O)OC)c2)c(O)cc1O [Compound 22] | 10 to 50
CCC(C)CN(CCO)C(=O)c1cccc(-c2cc(-c3nnnn3CCCOC)c(O)cc2O)c1 (stereo not shown) [Compound 71] | > 50
COCCn1nnnc1-c1cc(-c2cccc(C(F)(F)F)c2)c(O)cc1O [Compound 12] | > 50
CCCCn1nnnc1-c1cc(-c2cccc(C(=O)N(CCO)CC(C)CC)c2)c(O)cc1O (stereo not shown) [Compound 61] | > 50
COCCCn1nnnc1-c1cc(-c2cccc(C(=O)NC(C)CN(C)C)c2)c(O)cc1O (stereo not shown) [Compound 70, 2′,4′-Dihydroxy-5′-[1-(3-methoxy-propyl)-1H-tetrazol-5-yl]-biphenyl-3-carboxylic acid (2-dimethylamino-1-methyl-ethyl)-amide] | > 50
CCCCn1nnnc1-c1cc(-c2cccc(C(=O)NCCCN3CCCC3)c2)c(O)cc1O [Compound 55] | > 50
CCc1ccccc1-c1cc(-c2nnnn2CCCOC)c(O)cc1O [Compound 75, 2′-Ethyl-5-[1-(3-methoxy-propyl)-1H-tetrazol-5-yl]-biphenyl-2,4-diol] | > 50
COCCCn1nnnc1-c1cc(-c2cccc(C(=O)NCCCN3CCOCC3)c2)c(O)cc1O [Compound 67, 2′,4′-Dihydroxy-5′-[1-(3-methoxy-propyl)-1H-tetrazol-5-yl]-biphenyl-3-carboxylic Acid (3-morpholin-4-yl-propyl)-amide] | > 50
COCCn1nnnc1-c1cc(-c2cc(C(C)C)ccc2OC)c(O)cc1O [Compound 9] | 1 to 10
COCCCn1nnnc1-c1cc(-c2cccc(OC(F)(F)F)c2)c(O)cc1O [Compound 17] | 1 to 10
5′-(1-Butyl-1H-tetrazol-5-yl-2′,4′-dihydroxy-biphenyl-3-carboxylic acid (3-dimethylamino-propyl)-methyl-amide [Compound 52] | > 50
COCCCn1nnnc1-c1cc(-c2ccc(F)cc2F)c(O)cc1O [Compound 84] | > 50

Molecule | IC50 [µM]
COCCCn1nnnc1-c1cc(-c2cccc(C(=O)N3CCN(CCN4CCCC4)CC3)c2)c(O)cc1O [Compound 72, {2′,4′-Dihydroxy-5′-[1-(3-methoxy-propyl)-1H-tetrazol-5-yl]-biphenyl-3-yl}-[4-(2-pyrrolidin-1-yl-ethyl)-piperazin-1-yl]-methanone] | > 50
CCCCn1nnnc1-c1cc(-c2cccc(C(=O)NC(C)COC)c2)c(O)cc1O (stereo not shown) [Compound 48, 5′-(1-Butyl-1H-tetrazol-5-yl)-2′,4′-dihydroxy-biphenyl-3-carboxylic acid (2-methoxy-1-methyl-ethyl)-amide] | > 50
CCCCn1nnnc1-c1cc(-c2cccc(C(=O)N3CCC(N4CCCC4)CC3)c2)c(O)cc1O [Compound 49, [5′-(1-Butyl-1H-tetrazol-5-yl)-2′,4′-dihydroxy-biphenyl-3-yl]-(4-pyrrolidin-1-yl-piperidin-1-yl)-methanone] | > 50
COCCCn1nnnc1-c1cc(-c2cccc(C(C)C)c2)c(O)cc1O [Compound 76, 3′-Isopropyl-5-[1-(3-methoxy-propyl)-1H-tetrazol-5-yl]-biphenyl-2,4-diol] | 10 to 50
CCCCn1nnnc1-c1cc(-c2cccc(C(=O)N3CCCC(C(=O)N(CC)CC)C3)c2)c(O)cc1O (stereo not shown) [Compound 51] | > 50
CCS(=O)(=O)N1CCN(C(=O)c2cccc(-c3cc(-c4nnnn4CCCOC)c(O)cc3O)c2)CC1 [Compound 66, {2′,4′-Dihydroxy-5′-[1-(3-methoxy-propyl)-1H-tetrazol-5-yl]-biphenyl-3-yl}-(4-ethanesulfonyl-piperazin-1-yl)-methanone] | > 50
COCCCn1nnnc1-c1cc(-c2cccc(C(=O)NC(C)COC)c2)c(O)cc1O (stereo not shown) [Compound 62] | > 50
COCCCn1nnnc1-c1cc(-c2cccc(C(=O)N(C)CCCN(C)C)c2)c(O)cc1O [Compound 64, 2′,4′-Dihydroxy-5′-[1-(3-methoxy-propyl)-1H-tetrazol-5-yl]-biphenyl-3-carboxylic Acid (3-dimethylamino-propyl)-methyl-amide] | > 50
CCCCn1nnnc1-c1cc(-c2cccc(C(=O)NCCN(C)C)c2)c(O)cc1O [Compound 58] | > 50
CCCCn1nnnc1-c1cc(-c2cccc(C(=O)NCCCN3CCOCC3)c2)c(O)cc1O [Compound 54] | > 50
COCCCn1nnnc1-c1cc(-c2ccccc2C(F)(F)F)c(O)cc1O [Compound 13, 5-[1-(3-Methoxy-propyl)-1H-tetrazol-5-yl]-2′-trifluoromethyl-biphenyl-2,4-diol] | > 50
COCCCn1nnnc1-c1cc(Br)c(O)cc1O [Compound 25] | > 50
CCCCn1nnnc1-c1cc(-c2cccc(C(=O)O)c2)c(O)cc1O [Compound 46] | > 50
COc1ccc(C(C)C)cc1-c1cc(-c2nnnn2C2CCN(C(=O)OC(C)(C)C)C2)c(O)cc1O (stereo not shown) [Compound 42, 3-[5-(4,6-Dihydroxy-5′-isopropyl-2′-methoxy-biphenyl-3-yl)-tetrazol-1-yl]-pyrrolidine-1-carboxylic Acid Tert-Butyl Ester] | 10 to 50
COc1ccc(C(=O)N2CCC(n3nnnc3-c3cc(-c4cc(C(C)C)ccc4OC)c(O)cc3O)CC2)cc1 [Compound 37, {4-[5-(4,6-dihydroxy-5′-isopropyl-2′-methoxy-biphenyl-3-yl)-tetrazol-1-yl]-piperidin-1-yl}-(4-methoxy-phenyl)-methanone] | 1 to 10
COc1ccc(C(C)C)cc1-c1cc(-c2nnnn2C2CCN(C(=O)CC(C)C)CC2)c(O)cc1O [Compound 40, 1-{4-[5-(4,6-Dihydroxy-5′-isopropyl-2′-methoxy-biphenyl-3-yl)-tetrazol-1yl]-piperidin-1-yl}-3-methyl-butan-1-one] | 10 to 50
4-[1-(3-Methoxy-propyl)-1H-tetrazol-5-yl]-6-naphthalen-2-yl-benzene-1,3-diol [Compound 78] | 10 to 50
COCCCn1nnnc1-c1cc(-c2cccc(C(=O)O)c2)c(O)cc1O [Compound 47] | > 50
COc1ccc(C(C)C)cc1-c1cc(-c2nnnn2-c2ccccc2)c(O)cc1O [Compound 120] | < 1
COCCn1nnnc1-c1cc(-c2cc(C(F)(F)F)ccc2F)c(O)cc1O [Compound 10, 2′-Fluoro-5-[1-(2-methoxy-ethyl)-1H-tetrazol-5-yl]-5′-trifluoromethyl-biphenyl-2,4-diol] | > 50
COCCCn1nnnc1-c1cc(-c2ccc(Oc3ccccc3)cc2)c(O)cc1O [Compound 74, 5-[1-(3-Methoxy-propyl)-1H-tetrazol-5-yl]-4′-phenoxy-biphenyl-2,4-diol] | > 50
CCCCn1nnnc1-c1cc(-c2cccc(C(=O)N3CCN(S(=O)(=O)CC)CC3)c2)c(O)cc1O [Compound 53, [5′-(1-Butyl-1H-tetrazol-5-yl)-2′,4′-dihydroxy-biphenyl-3-yl]-(4-ethanesulfonyl-piperazin-1-yl)-methanone] | > 50
CCN1CCC(n2nnnc2-c2cc(-c3cc(C(C)C)ccc3OC)c(O)cc2O)CC1 [Compound 38] | 1 to 10
CCOc1cccc(-c2cc(-c3nnnn3CCCOC)c(O)cc2O)c1 [Compound 77, 3′-Ethoxy-5-[1-(3-methoxy-propyl)-1H-tetrazol-5-yl]-biphenyl-2,4-diol] | 10 to 50
